Data from patent publication EP0590885B1, “Antibiotic carbapenem compounds” (ZENECA LIMITED, priority 1992, dated 1994).
In brackets after ≈: the same amount, converted by molar mass.

How the values were obtained:
Assay in all cases: MIC by agar-dilution technique, Diagnostic Sensitivity Test
Type in all cases: cell-based
[1] = test system: Enterobacter cloacae -029; conditions: inoculum size 10^4 CFU/spot
Text: (§1) The following results were obtained for representative compounds on a standard in vitro test system using Diagnostic Sensitivity Test. The antibacterial activity is described in terms of the minimum inhibitory concentration (MIC) determined by the agar-dilution technique with an inoculum size of 10^4 CFU/spot.

E. coli TEM = conditions: Escherichia coli
Text: as §1

Enterobacter cloacae 108 = conditions: inoculum size 10^4 CFU/spot
Text: as §1

S. aureus 147N = conditions: Staphylococcus aureus, inoculum size 10^4 CFU/spot
Text: as §1

| Structure (SMILES) | MIC [1] [µg/mL] | MIC (E. coli TEM) [µg/mL] | MIC (Enterobacter cloacae 108) [µg/mL] | MIC (S. aureus 147N) [µg/mL] |
| --- | --- | --- | --- | --- |
| CO/N=C(\C(=O)N[C@@H]1C(=O)N2C(C(=O)O)=C(CSc3nc(=O)c(=O)[nH]n3C)CS[C@H]12)c1csc(N)n1 [ceftriaxone, reference compound] | 0.06 (≈ 0.108 µM) | 0.03 (≈ 0.0541 µM) | 32 (≈ 57.7 µM) | 2 (≈ 3.61 µM) |
| C[C@@H](O)[C@H]1C(=O)N2C(C(=O)O)=C(S[C@@H]3CN[C@H](C(=O)Nc4cccc(OCC(=O)O)c4)C3)[C@H](C)[C@H]12 [Example 3, (1R,5S,6S,8R,2'S,4'S)-2-(2-(3-Carboxymethoxyphenylcarbamoyl)pyrrolidin-4-ylthio)-6-(1-hydroxyethyl)-1-methylcarbapenem-3-carboxylic acid] | 0.06 (≈ 0.119 µM) | 0.03 (≈ 0.0593 µM) | 1 (≈ 1.98 µM) | 0.25 (≈ 0.495 µM) |
| C[C@@H](O)[C@H]1C(=O)N2C(C(=O)O)=C(S[C@@H]3CN[C@H](C(=O)Nc4cccc(/C=C/C(=O)O)c4)C3)[C@H](C)[C@H]12 [Example 1, (1R,5S,6S,8R,2'S,4'S)-2-(2-(3-(E-2-Carboxy-1-ethenyl)phenylcarbamoyl)pyrrolidin-4-ylthio)-6-(1-hydroxyethyl)-1-methylcarbapenem-3-carboxylic acid] | 0.13 (≈ 0.259 µM) | 0.03 (≈ 0.0598 µM) | 2 (≈ 3.99 µM) | 0.13 (≈ 0.259 µM) |
| C[C@@H](O)[C@H]1C(=O)N2C(C(=O)O)=C(S[C@@H]3CN[C@H](C(=O)Nc4cc(/C=C/C(=O)O)ccc4O)C3)[C@H](C)[C@H]12 [Example 2, (1R,5S,6S,8R,2'S,4'S)-2-(2-(3-(E-2-Carboxy-1-ethenyl)-6-hydroxyphenylcarbamoyl)pyrrolidin-4-ylthio)-6-(1-hydroxyethyl)-1-methylcarbapenem-3-carboxylic acid] | 0.25 (≈ 0.483 µM) | 0.06 (≈ 0.116 µM) | 4 (≈ 7.73 µM) | 0.25 (≈ 0.483 µM) |
| C[C@@H](O)[C@H]1C(=O)N2C(C(=O)O)=C(S[C@@H]3CN[C@H](C(=O)Nc4cccc(C(=O)NCC(=O)O)c4)C3)[C@H](C)[C@H]12 [Example 7, (1R,5S,6S,8R,2'S,4'S)-2(2-(3-Carboxymethylaminocarbonylphenylcarbamoyl)-pyrrolidin-4-ylthio)-6-(1-hydroxyethyl)-1-methylcarbapenem-3-carboxylic acid] | 0.13 (≈ 0.244 µM) | 0.03 (≈ 0.0563 µM) | 1 (≈ 1.88 µM) | 0.25 (≈ 0.469 µM) |
